Among the data in patent US11046725B2, “Galactoside inhibitor of galectins” (GALECTO BIOTECH AB, priority 2018, dated 2021) are Kd values, retold here.

Experiment [1] addresses Galectin-1 (Homo sapiens (Human), UniProt P09382). The experiment can be described thus: Fluorescence anisotropy assay, inhibition of galectin / fluorescein tagged saccharide probe interaction. Type of experiment: binding. (Fluorescence polarisation rises when a labelled molecule tumbles more slowly, as on binding a larger partner.)
Experiment [2] concerns the target Galectin-3 (Homo sapiens (Human), UniProt P17931). Described as above. Type of experiment: binding. How it is done:
Experimental Procedures (Evaluation of Kd Values)
The affinity of Example 1-33 for galectins were determined by a fluorescence anisotropy assay where the compound was used as an inhibitor of the interaction between galectin and a fluorescein tagged saccharide probe as described Sörme, P., Kahl-Knutsson, B., Huflejt, M., Nilsson, U. J., and Leffler H. (2004) Fluorescence polarization as an analytical tool to evaluate galectin-ligand interactions. Anal. Biochem. 334: 36-47, (Sörme et al., 2004) and Monovalent interactions of Galectin-1 By Salomonsson, Emma; Larumbe, Amaia; Tejler, Johan; Tullberg, Erik; Rydberg, Hanna; Sundin, Anders; Khabut, Areej; Frejd, Torbjorn; Lobsanov, Yuri D.; Rini, James M.; et al, From Biochemistry (2010), 49(44), 9518-9532, (Salomonsson et al., 2010).

Sequence of Galectin-3 (P17931 whole entry): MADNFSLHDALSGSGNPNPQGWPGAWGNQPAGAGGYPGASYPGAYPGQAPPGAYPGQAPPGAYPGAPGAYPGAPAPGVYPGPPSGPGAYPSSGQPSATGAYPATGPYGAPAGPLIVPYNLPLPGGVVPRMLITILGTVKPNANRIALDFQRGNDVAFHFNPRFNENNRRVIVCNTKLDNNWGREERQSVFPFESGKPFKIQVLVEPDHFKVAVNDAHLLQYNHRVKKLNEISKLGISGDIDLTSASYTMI
Sequence of Galectin-1 (P09382 whole entry): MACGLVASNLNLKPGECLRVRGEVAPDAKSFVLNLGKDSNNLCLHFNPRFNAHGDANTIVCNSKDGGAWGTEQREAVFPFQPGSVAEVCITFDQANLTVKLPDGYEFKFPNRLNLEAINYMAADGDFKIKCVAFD

As for `OC[C@H]1O[C@H](Sc2cnc(C(F)(F)F)c(Br)c2)[C@H](O)[C@@H](n2cc(-c3nc(Cl)cs3)nn2)[C@H]1O` [Example 1, 5-Bromo-6-trifluoromethyl-pyridine-3-yl 3-[4-(4-chlorothiazol-2-yl)-1H-1,2,3-triazol-1-yl]-3-deoxy-1-thio-α-D-galactopyranoside], the dissociation constant (Kd) (in general, the free concentration of one partner at which half of the binding sites on the other are occupied at equilibrium, for simple one-to-one binding) in experiment [1] was 0.11 µM; in experiment [2], 0.25 µM.
`OC[C@H]1O[C@H](Sc2cnc(C(F)(F)F)c(Br)c2)[C@H](O)[C@@H](n2cc(-c3nc(Br)cs3)nn2)[C@H]1O` [Example 2, 5-Bromo-6-trifluoromethyl-pyridine-3-yl 3-[4-(4-bromothiazol-2-yl)-1H-1,2,3-triazol-1-yl]-3-deoxy-1-thio-α-D-galactopyranoside]: the Kd was determined as 0.16 µM in experiment [1] and 0.58 µM in experiment [2].
In the same order, the values of `N#Cc1ncc(S[C@H]2O[C@H](CO)[C@H](O)[C@H](n3cc(-c4nc(Cl)cs4)nn3)[C@H]2O)cc1Cl` [Example 3, 5-Chloro-6-cyano-pyridine-3-yl 3-[4-(4-chlorothiazol-2-yl)-1H-1,2,3-triazol-1-yl]-3-deoxy-1-thio-α-D-galactopyranoside] are 0.095 µM and 0.42 µM.
In the same order, the values of `N#Cc1ncc(Br)cc1S[C@H]1O[C@H](CO)[C@H](O)[C@H](n2cc(-c3nc(Cl)cs3)nn2)[C@H]1O` [Example 4, 5-Bromo-2-cyano-pyridine-3-yl 3-[4-(4-chlorothiazol-2-yl)-1H-1,2,3-triazol-1-yl]-3-deoxy-1-thio-α-D-galactopyranoside] are 0.085 µM and 0.2 µM.
In the same order, the values of `N#Cc1ncc(Cl)cc1S[C@H]1O[C@H](CO)[C@H](O)[C@H](n2cc(-c3nc(Cl)cs3)nn2)[C@H]1O` [Example 5, 5-Chloro-2-cyano-pyridine-3-yl 3-[4-(4-chlorothiazol-2-yl)-1H-1,2,3-triazol-1-yl]-3-deoxy-1-thio-α-D-galactopyranoside] are 0.095 µM and 0.22 µM.
In the case of `N#Cc1ncc(S[C@H]2O[C@H](CO)[C@H](O)[C@H](n3cc(-c4nc(Cl)cs4)nn3)[C@H]2O)cc1Br` [Example 6, 5-Bromo-6-cyano-3-pyridyl 3-[4-(4-chlorothiazol-2-yl)-1H-1,2,3-triazol-1-yl]-3-deoxy-1-thio-α-D-galactopyranoside], the dissociation constant Kd in experiment [1] was 0.068 µM; in experiment [2] it was 0.25 µM.
In the same order, the values of `OC[C@H]1O[C@H](Sc2ccc(Cl)c(Cl)c2)[C@H](O)[C@@H](n2cc(-c3csc(Cl)n3)nn2)[C@H]1O` [Example 7, 3,4-Dichlorophenyl 3-[4-(2-chlorothiazol-4-yl)-1H-1,2,3-triazol-1-yl]-3-deoxy-1-thio-α-D-galactopyranoside] are 0.49 µM and 1.4 µM.
In the same order, the values of `OC[C@H]1O[C@H](Sc2ccc(Cl)c(Cl)c2)[C@H](O)[C@@H](n2cc(-c3csc(O)n3)nn2)[C@H]1O` [Example 12, 3,4-Dichlorophenyl 3-deoxy-3-[4-(2-hydroxythiazol-4-yl)-1H-1,2,3-triazol-1-yl]-1-thio-α-D-galactopyranoside] are 0.058 µM and 8.6 µM.
For the molecule `N#Cc1ncc(S[C@H]2O[C@H](CO)[C@H](O)[C@H](n3cc(-c4csc(O)n4)nn3)[C@H]2O)cc1Cl` [Example 13, 5-Chloro-6-cyano-pyridine-3-yl 3-deoxy-3-[4-(2-hydroxythiazol-4-yl)-1H-1,2,3-triazol-1-yl]-1-thio-α-D-galactopyranoside], the dissociation constant (Kd) in experiment [1] came out at 0.038 µM; in experiment [2], 8 µM.
For `N#Cc1ncc(Br)cc1S[C@H]1O[C@H](CO)[C@H](O)[C@H](n2cc(-c3csc(O)n3)nn2)[C@H]1O` [Example 14, 5-Bromo-2-cyano-pyridine-3-yl 3-deoxy-3-[4-(2-hydroxythiazol-4-yl)-1H-1,2,3-triazol-1-yl]-1-thio-α-D-galactopyranoside], in that order: 0.033 µM and 2.6 µM.
For `N#Cc1ncc(S[C@H]2O[C@H](CO)[C@H](O)[C@H](n3cc(-c4csc(O)n4)nn3)[C@H]2O)cc1Br` [Example 15, 5-Bromo-6-cyano-3-pyridyl 3-deoxy-3-[4-(2-hydroxythiazol-4-yl)-1H-1,2,3-triazol-1-yl]-1-thio-α-D-galactopyranoside], in that order: 0.019 µM and 2.8 µM.
As for `N#Cc1ncc(Cl)cc1S[C@H]1O[C@H](CO)[C@H](O)[C@H](n2cc(-c3csc(O)n3)nn2)[C@H]1O` [Example 16, 5-Chloro-2-cyano-3-pyridyl 3-deoxy-3-[4-(2-hydroxythiazol-4-yl)-1H-1,2,3-triazol-1-yl]-1-thio-α-D-galactopyranoside], the Kd in experiment [1] came to 0.006 µM; in experiment [2], 2.2 µM.
For `OC[C@H]1O[C@H](Sc2cnc(C(F)(F)F)c(Cl)c2)[C@H](O)[C@@H](n2cc(-c3csc(O)n3)nn2)[C@H]1O` [Example 17, 5-Chloro-6-trifluoromethyl-pyridin-3-yl 3-deoxy-3-[4-(2-hydroxythiazol-4-yl)-1H-1,2,3-triazol-1-yl]-1-thio-α-D-galactopyranoside], in that order: 0.028 µM and 2.8 µM.
In the same order, the values of `OC[C@H]1O[C@H](Sc2cc(Cl)c(F)c(Cl)c2)[C@H](O)[C@@H](n2cc(-c3csc(O)n3)nn2)[C@H]1O` [Example 18, 3,5-Dichloro-4-fluoro-phenyl 3-deoxy-3-[4-(2-hydroxythiazol-4-yl)-1H-1,2,3-triazol-1-yl]-1-thio-α-D-galactopyranoside] are 0.027 µM and 9.7 µM.
Regarding `OC[C@H]1O[C@H](Sc2cc(Cl)c(Cl)c(Cl)c2)[C@H](O)[C@@H](n2cc(-c3csc(O)n3)nn2)[C@H]1O` [Example 20, 3,4,5-trichlorophenyl 3-deoxy-3-[4-(2-hydroxythiazol-4-yl)-1H-1,2,3-triazol-1-yl]-1-thio-α-D-galactopyranoside], the Kd turned out to be 0.056 µM in experiment [1] and 6 µM in experiment [2].
In the same order, the values of `OC[C@H]1O[C@H](Sc2cc(Br)c(F)c(Br)c2)[C@H](O)[C@@H](n2cc(-c3csc(O)n3)nn2)[C@H]1O` [Example 21, 3,5-dibromo-4-fluorophenyl 3-deoxy-3-[4-(2-hydroxythiazol-4-yl)-1H-1,2,3-triazol-1-yl]-1-thio-α-D-galactopyranoside] are 0.05 µM and 4.6 µM.
For `N#Cc1ccc(S[C@H]2O[C@H](CO)[C@H](O)[C@H](n3cc(-c4csc(O)n4)nn3)[C@H]2O)cc1Br` [Example 22, 3-Bromo-4-cyanophenyl 3-deoxy-3-[4-(2-hydroxythiazol-4-yl)-1H-1,2,3-triazol-1-yl]-1-thio-α-D-galactopyranoside], in that order: 0.063 µM and 6 µM.
For `OC[C@H]1O[C@H](Sc2cnc(C(F)(F)F)c(Br)c2)[C@H](O)[C@@H](n2cc(-c3csc(O)n3)nn2)[C@H]1O` [Example 23, 5-Bromo-6-trifluoromethyl-3-pyridyl 3-deoxy-3-[4-(2-hydroxythiazol-4-yl)-1H-1,2,3-triazol-1-yl]-1-thio-α-D-galactopyranoside], in that order: 0.032 µM and 3.1 µM.
For the molecule `OC[C@H]1O[C@H](Sc2ccc(C(F)(F)F)c(Cl)c2)[C@H](O)[C@@H](n2cc(-c3csc(O)n3)nn2)[C@H]1O` [Example 24, 3-Chloro-4-trifluoromethylphenyl 3-deoxy-3-[4-(2-hydroxythiazol-4-yl)-1H-1,2,3-triazol-1-yl]-1-thio-α-D-galactopyranoside], the Kd in experiment [1] was determined as 0.071 µM; in experiment [2], 6.5 µM.
